{
  "source": "patent US20160011208A1",
  "about": "“ASSAY FOR POLYPEPTIDE AGGREGATION USING MICRODROPLETS” (priority 2013, published 2016)",
  "molecular_target": "T1, Aβ1-42 (Homo sapiens, UniProt P05067)",
  "T1 construct": "Scyllo-inositol and amyloid monomers (Aβ1-42) were compartmentalised in droplets",
  "T1 sequence (P05067 672-713 limits assumed)": "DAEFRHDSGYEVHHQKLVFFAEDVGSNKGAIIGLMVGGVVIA",
  "assay": "Inhibition of Aβ1-42 aggregation in microdroplet gel beads, flow cytometric analysis",
  "type": "biochemical",
  "conditions": "HF488Aβ1-42 with scyllo-inositol in droplets, amyloid:inhibitor ratios 1:1 or 1:20, versus control without inhibitor; flow cytometry (FIG. 12)",
  "procedure": "FIG. 12: Inhibition of aggregation by scyllo-inositol. Scyllo-inositol and amyloid monomers (Aβ1-42) were compartmentalised in droplets and incubated at ratios of amyloid:inhibitor of 1:1 (central bar at each time point) or 1:20 (right-hand bar at each time point), respectively. The left-hand bar at each time point represents a control with no scyllo-inositol.\nA microfluidic droplet generator with a flow focusing geometry was used to generate water-in-oil droplets. The contents of the droplets were determined by the content of the supply stream: peptide buffer solution was mixed with agarose gel solution and trapped by HFE7500 oil containing a surfactant, e.g. 0.5% (w/w) fluorous tri-block copolymers. […]\nSince the processed gel beads were stored in aqueous buffer solution, they could be tested via flow cytometry or FACS, a technique requiring aqueous carrier fluid, in order to assess the aggregation process and compare different intensity of aggregates inside agarose beads. Incubated and washed agarose beads with Hilyte488-labelled Aβ1-40 aggregates were sent to FACS and the beads with fluorescent aggregates were counted. […] The percentage of beads containing aggregates was calculated using the program Summit. […]",
  "data": [
    {"smiles": "O[C@H]1[C@H](O)[C@@H](O)[C@H](O)[C@@H](O)[C@@H]1O", "note": "[scyllo-inositol]", "values": [
      {"measurement": "inhibition of aggregation of Aβ1-42 monomers in gel beads", "value": "inhibition of aggregation by scyllo-inositol was detected"}
    ]}
  ]
}
